The subject of one data set is E. coli (ATCC 25922). Nature of the data set: microbe, parasite or virus in culture. It counts as cell-based, Escherichia coli. To be noted: ATCC 25922, 24 h. The essentials:
(§1)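 Overnight LB cultures were adjusted to 0.5 McFarland in saline and diluted 1/150 in Mueller Hinton broth. Peptides were serially diluted 2-fold across the plate (256 µg/mL top […] concentration), inoculated, and incubated 24 h at 37 °C. MIC was read as the lowest concentration showing no visible growth.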

In data set [1] the test system is C. parapsilosis (ATCC 22019). The experiment in a line: microbe, parasite or virus in culture. Particulars: ATCC 22019, 24 h. The format is cell-based, Candida parapsilosis.
In data set [2] the test system is K. pneumoniae (ATCC BAA-1705). The experiment in a line: microbe, parasite or virus in culture. The format is cell-based, Klebsiella pneumoniae. Particulars: ATCC BAA-1705, 24 h. The essentials:
as §1

Data set [3] deals with C. parapsilosis and A. fumigatus. The format is cell-based. To be noted: span over the two fungi. The method, then:
The antifungal activity of all ten synthesized linear and cyclic peptides was evaluated against C. albicans (ATCC 60193), C. parapsilosis (ATCC 22019), and A. fumigatus (AF-293). Fluconazole and amphotericin B were used as positive controls for this study. The MIC was determined at concentrations in wells with no visible fungal growth.
A. fumigatus (Af-293) was cultured on Sabouraud dextrose agar (SDA) (Lot #3431660, Oxoid) for 48–72 h at 35 °C to obtain fresh and mature colonies which reached the proper sporulation then used to prepare the inoculum. The colonies were covered with Phosphate-Buffered Saline (PBS) containing 0.025% Tween-20, scraped from the plate, and carefully collected into a sterile tube. The suspension was centrifuged at 3000 RPM for 5 min after the separation between conidia and hyphae. […]
Peptide concentrations of 50, 25, 12.5, 6.25, and 3.1 μg/mL were tested in triplicate. […] Fungal growth was visualized, and the minimum inhibitory concentration (MIC) was determined as the lowest peptide concentration, where no growth was observed. […]
Peptide concentrations of 50, 25, 12.5, 6.25, and 3.1 μg/mL were tested in triplicate and repeated twice. […] Fungal and microbial growth were visually observed in the control wells, and the minimum inhibitory concentration (MIC) was determined as the lowest concentration at which no growth was detected in the wells. […]

Data set [4] deals with S. pneumoniae (ATCC 51938). Nature of the data set: microbe, parasite or virus in culture. It counts as cell-based, Streptococcus pneumoniae. Particulars: ATCC 51938, 24 h. As to the method: The antibacterial activity of all ten synthesized linear and cyclic peptides was evaluated against MRSA (ATCC BAA-1556), S. aureus (ATCC 29213), E. faecium (ATCC 700221), S. pneumoniae (ATCC 51938), E. faecalis (ATCC 29212), B. subtilis (ATCC-6633), K. pneumoniae (ATCC BAA-1705), P. aeruginosa (ATCC 27883), and E. coli (ATCC 25922). Meropenem and daptomycin were used as positive controls for this study. Certain peptides are marked as “NT” (not tested) against specific bacterial strains based on initial screening data. […] The MIC was determined by micro-broth dilution protocol, where the minimal concentrations were determined to be in wells with no visible bacterial growth.
All bacterial experiments were carried out in a laminar flow hood (Labconco, Kansas City, MO, USA). The bacterial strains were cultured following the guidelines set by the Clinical Laboratory Standards Institute (CLSI). Antibacterial assays were performed using a standard microtiter dilution method as described in previous studies. The minimum inhibitory concentration (MIC) refers to the lowest peptide concentration that inhibits bacterial growth in wells with no visible bacterial growth. MIC was determined by micro-broth dilution. Bacteria were cultured overnight in 6 mL of Luria Broth (LB). A stock solution of the peptide was prepared in water and DMSO, and a test compound solution with a concentration of 256 µg/mL was made in LB. Meropenem, with a solubility of 8 mg/mL, was prepared as a stock solution at 4 mg/500 µL. An aliquot of the overnight bacteria culture was diluted in normal saline (NS, 1 mL) until achieving a 0.5 McFarland turbidity (1.5 × 10^8 bacterial cell CFU/mL). A 0.5 McFarland compared solution (60 µL) was added to Mueller Hinton Broth (MH) 8940 µL to generate a 1/150 dilution. A 200 µL test compound solution was added to the first well of a 96-well plate, and the remaining wells (2–12) were filled with 100 µL of MH media using a multi-channel pipette from a sterile reservoir. A concentration of […] of the tested peptides was prepared from a stock solution of the samples for testing in Muller−Hinton broth MH media. Peptides stock solution was dissolved in 5% DMSO in water, and the final concentration of DMSO in the first well of assay plate was 2.5% DMSO/H2O and diluted across the assay plate.
A 100 µL sample from well 1 was pipetted into well 2, and the solution was mixed thoroughly by pipetting up and down. Next, 100 µL was transferred from well 2 to well 3, followed by thorough mixing. This 2-fold serial dilution process continued through well 11, with no additions made to well 12. The final 100 µL from well 11 was discarded. After completing the serial dilution, each well (1–12) contained 100 µL of solution. The bacterial culture in MH media was vortexed and transferred to a sterile reservoir, from which 100 µL was added to each well using a 12-channel pipette. (Note: The dilutions were further diluted upon adding the bacterial solution; for example, the concentration in well 1 started at […] after the addition of the bacterial culture.) The plates were incubated overnight at 37 °C for 24 h. All experiments were performed in triplicate and repeated twice, with controls consisting of bacteria in MH media and positive controls of daptomycin or meropenem.

For data set [5] the following is noted: cited from earlier work. The source says: We hypothesized that these peptides can be used as a broad-spectrum antibiotic and antifungal agents by interacting with bacterial and fungal membranes. The head-to-tail cyclization and incorporation of unnatural amino acids could provide improved stability against degradation in the biological environment. […] For example, we have previously shown the plasma stability of [DipR]5. Approximately 15% degradation of [DipR]5 was observed within the first hour, but the rate of de ...

The structures appear in SMILES notation. Values after ≈ are worked out from the molar mass of the structure shown. Values joined by “and” are separate entries in the source; they are usually repeats but may differ in a detail not shown here. Equal values may be shown once. Non-standard residues stand in square brackets, D forms with d. Residues, ends and D or L forms follow the SMILES beside them. Dip = N[C@H](C(=O)O)C(c1ccccc1)c1ccccc1

`N=C(N)NCCC[C@@H]1NC(=O)[C@H](C(c2ccccc2)c2ccccc2)NC(=O)[C@H](CCCNC(=N)N)NC(=O)[C@H](C(c2ccccc2)c2ccccc2)NC(=O)[C@H](CCCNC(=N)N)NC(=O)[C@H](C(c2ccccc2)c2ccccc2)NC(=O)[C@H](CCCNC(=N)N)NC(=O)[C@H](C(c2ccccc2)c2ccccc2)NC(=O)[C@H](CCCNC(=N)N)NC(=O)[C@H](C(c2ccccc2)c2ccccc2)NC1=O` [[DipR]5] (cyclo([Dip]R[Dip]R[Dip]R[Dip]R[Dip]R)): the MIC with E. coli (ATCC 25922) is 12.5 µM (≈ 23.7 µg/mL); in data set [1] it was 6.6 µM (≈ 12.5 µg/mL); in data set [2] it was 25 µM (≈ 47.4 µg/mL); in data set [4], 0.39 µM (≈ 0.74 µg/mL). In addition, the “MIC values against C. parapsilosis and A. fumigatus” value in data set [3] is 1.6–6.6 µM and 3.0–12.5 µg/mL. The degradation in plasma entry in data set [5] was “Approximately 15%”.

(Values after paper PMC11763264, “Antibacterial and Antifungal Activities of Linear and Cyclic Peptides Containing Arginine, Tryptophan, and Diphenylalanine” (Antibiotics, 2025).)
